6 molecules from patent publication US7442788B2, “Antisense molecules and method of controlling expression of gene function by using the same” (Japan Science and Technology Corporation, priority 2001, dated 2008) can be followed below.

Data set [1] in a line: Circular dichroism (CD) spectrum, molar ellipticity at about 270 nm as measure of base moiety orientation (syn/anti). In kind it is physicochemical. The conditions noted are these: for change of [θ]ext / CD peak from phosphate buffer to borate buffer (borax): phosphate vs borate buffer. The text has this: The molar ellipticity ([θ]max) at about 270 nm in the CD spectrum of a nucleoside reflects two factors, namely the orientation of the base moiety to the furanose moiety and the puckering of the furanose ring. It is known that the molar ellipticity at about 270 nm markedly decreases in the syn orientation as compared with the anti orientation. […]
[…] […] The rate of syn orientation induction in Urd in the presence of boric acid was smaller as compared with IPU but this can be explained by the presence of an equilibrium between the borate ester formation and the dissociation.
Specifically, CD spectra were measured with Urd, 5′-aminouridine (5′-NH2-Urd) and 5′-aminoisopropylideneuridine (5′-NH2-IPU) in phosphate buffer (pH 7.2) and with 5′-NH2-Urd in borate buffer (pH 7.2) for the investigation of uracil moiety orientations. […] This is presumably due to a syn orientation-inducing effect of hydrogen bond formation between the oxygen atom of the 2-position carbonyl group of the nucleoside base moiety and the 5′-position amino hydrogen atom. Under the measurement conditions in this case, the 5′-position amino group of 5′-NH2-Urd occurs in an ammonium ion state and presumably serves as a good hydrogen bond donor. […] This is probably due to two synergistic effects, namely the fixation of the sugar moiety to the 2′,3′-planar structure and the hydrogen bond formation between the 5′-position amino group and the 2-position carbonyl group of the base moiety.
Then, on the supposition that Urd in phosphate buffer ([θ]max value=9700) is in an ideal 100% anti orientation and 5′-NH2-IPU in phosphate buffer ([θ]max value=1200) in an ideal 100% syn orientation, the orientations of the base moiety (uracil) of uridine and uridine derivatives (5′-NH2-Urd, IPU, 5′-NH2-IPU) were evaluated under different conditions (in phosphate buffer, in borate buffer).
Background: CD spectra are sensitive to the conformation of chiral molecules.

Data set [2] is described as follows: Association constant with boric acid from CD peak decrement against borax/boric acid concentration, curve fitting. In kind it is binding. As to the method:
However, there is no direct evidence as yet that this change in base moiety orientation is induced by borate ester bond formation. Therefore, the dependency of the change in base moiety orientation on the concentration of borax (Na2B4O7) was investigated at pH 7.2. […] The association constant of 5′-NH2-Urd with boric acid was determined by plotting the decrement in peak height against the boric acid (borax) concentration, followed by curve fitting. Supposing that borax give 4 equivalents of boric acid in aqueous solution, the association constant of 5′-NH2-Urd with boric acid was calculated at 75 M^−1.
In addition to the above-mentioned borax, boric acid (B(OH)3) was also used and the addition test was carried out in the same manner. In this case, too, decreases in peak height were observed, and the association constant was calculated at 49 M^−1. In addition, changes in orientation due to ester formation were also observed with methylboric acid and phenylboric acid.
As is evident from FIG. 8a, almost the same change as that attained by addition of 50 mM of borax at pH 7.2 was obtained at pH 8.8 only by addition of 2 mM of borax. […] The association constant 5′-NH2-Urd with boric acid was calculated at 600 M^−1, which is greater by one order than at pH 7.2.

In a further data set the test system is d(A)8. The data set is described as follows: Melting point (Tm) of complex with oligonucleotide by UV absorbance change. Type of data set: binding. The conditions noted are these: phosphate pH 7.2. On the procedure: (§1) Specifically, the PRNA2 (octamer) (17) was mixed with the oligonucleotide octamer shown in Table 3, the melting point (Tm) was determined by measuring the resulting change in absorbance on a UV spectrum, and the ability of the PRNA2 (octamer) (17) to hybridize with a nucleic acid (complex forming ability) was evaluated from that melting point. Further, for examining the influence of boric acids on the PRNA2 (octamer)-DNA hybrid formation and on the stability thereof, melting point measurements were carried out using the PRNA2 (octamer) (17) and d(A)8 as the binding target oligonucleotide to the PRNA2, namely a complementary compound to (T)8, with and without addition of borax (20 mM), and the melting points were compared. A control run was carried out in the same manner using (T)8 as the binding target oligonucleotide in lieu of d(A) 8.

The test system of a further data set is (T)8. Briefly: Melting point (Tm) of complex with oligonucleotide by UV absorbance change, control run. In kind it is binding. As to conditions: phosphate pH 7.2. As to the method:
as §1

A further data set concerns d(A)12. Briefly: Melting temperature (Tm) of dodecameric chimera nucleic acid with complementary DNA. In kind it is binding. As to the method: Using the above dodecameric chimera nucleic acid and a DNA having a complementary base sequence, the melting temperature Tm was measured in phosphate buffer allowing predominance of the anti orientation in the PRNA moiety.
For the next data set, the system named is d(C)8. The data set is described as follows: Melting temperature (Tm) of homopurine PRNA-DNA complex. Type of data set: binding.
Another data set relates to 5′-d(ACCAAAAA)-3′. The data set is described as follows: Melting temperature (Tm) of PRNA (octamer)-DNA hybrid by UV absorbance change, control experiment. Type of data set: binding. As to conditions: for Tm: binding target 5′d(ACCAAAAA)3′. As to the method: (§2) Specifically, the PRNA (octamer NH2-UIIUUUUU-Lys-OH) was mixed with each of oligonucleotide octamers specified in Table 6, the melting temperature (Tm) was determined by measuring the resulting change in absorbance on UV spectra, and the ability of the PRNA (octamer) to hybridize with the nucleic acid (complex forming ability) was evaluated based on the resultant melting temperature. Furthermore, the effects of a borate on the PRNA (octamer)-DNA hybrid formation and the stability thereof were investigated using the PRNA (octamer) and 5′-d(AAAAACCA)-3′, a complementary compound as its binding target oligonucleotide, and measuring the melting temperatures with and without addition of borax (20 mM) to the phosphate buffer and comparing them. A control experiment was carried out in the same manner using 5′-d(ACCAAAAA)-3′ as the binding target oligonucleotide in lieu of 5′-d(AAAAACCA)-3′.

In a further data set the test system is 5′-d(AAAAACCA)-3′. The data set is described as follows: Melting temperature (Tm) of PRNA (octamer)-DNA hybrid by UV absorbance change. As to conditions: binding target 5′d(AAAAACCA)3′. As to the method:
as §2

Data set [3] concerns polyadenylic acid (poly(A)). The data set is described as follows: Complex formation by continuous absorbance (260 nm) plotting, control by borax and sugars. Type of data set: binding. As to the method: Therefore, poly(Nγ-(5′-deoxy-5′-uridyl)-L-glutamine) PRNA1 (Production Example 1) was examined for its complex forming ability using polyadenylic acid (poly(A)) as its complementary strand. […] Then, borax was added to this PRNA1- and poly(A)-containing phosphate buffer solution, whereupon the absorbance (260 nm) increased in a concentration-dependent manner until a certain concentration, as shown by the plots ▪ in FIG. 20(a). Upon addition of borax in an amount about 3 times the amount of the PRNA1, the absorbance (260 nm) increased to be the original absorbance prior to addition of poly(A). […] Furthermore, this borate ester was in equilibrium with its anionic form even at pH 7.2.

Values joined by “and” are separate entries in the source; they are usually repeats but may differ in a detail not shown here. Identical values can stand only once. Where only a bound is given, the exact number is not on record here.

In the case of `NC[C@H]1O[C@@H](n2ccc(=O)[nH]c2=O)[C@H](O)[C@@H]1O` [5′-NH2-Urd, 5′-amino-5′-deoxyuridine], the “proportion of syn orientation of the base moiety” value in data set [1] (8 mM borax added, phosphate buffer pH 7.2) is 83 % syn; in [1] (8 mM borax, pH adjusted from 7.2 to 6.2), 58 % syn; in data set [1] (borate buffer (pH 7.2)), 95 % syn; in data set [1] (phosphate buffer (pH 7.2), no borax, Urd = 100% anti, 5′-NH2-IPU = 100% syn supposed) it was 55 % syn and 54 % syn. Moreover, the figures for the Molar ellipticity ([θ]ext) at about 270 nm in data set [1] (borate buffer (pH 7.2)) and in data set [1] (phosphate buffer (pH 7.2)) were 1600 deg·cm2/dmol and 5100 deg·cm2/dmol, respectively. The entries for the “[θ]max” value in [1] (borate buffer (pH 7.2)) and in data set [1] (phosphate buffer (pH 7.2)) were 1600 deg cm^2dmol^−1 and 5100 deg cm^2dmol^−1, respectively. For the same molecule, the “change of CD peak at about 270 nm / orientation upon addition of borax” value in [1] (pH 6.0) was “almost no peak decreases were observed”; in data set [1] (pH 8.8), “syn orientation is induced more effectively at pH 8.8”. In addition, in data set [1] (phosphate buffer minus borate buffer), the “Δ[θ]ext” value is 3500. The “association constant with boric acid” value in data set [2] (boric acid (B(OH)3) added instead of borax) was determined as 49 M⁻¹; in [2] (pH 7.2, borax added, borax supposed to give 4 equivalents of boric acid), 75 M⁻¹; in data set [2] (pH 8.8, borax added), 600 M⁻¹.

Consider HCl.(isoGln(5′U))8-Lys-OH [PRNA2 (17)], for which the Tm in the data set with d(A)8 (binding target d(A)8, 20 mM borax) was under 0 °C; with d(A)8 (binding target d(A)8, 20 mM borax, listed as PRNA2 (octamer)) it was “below 0 °C”; in the data set with d(A)8 (binding target d(A)8, no additive), 52.8 °C; with (T)8 (binding target (T)8, 20 mM borax) it was under 0 °C; in the data set on (T)8 (binding target (T)8, no additive) it was under 0 °C.

Turning to “NH2-UUUUUUUUTTTT-3′: chimeric molecule dodecamer, PRNA(Urd) octamer amide-bonded to thymidine tetramer”, the “change of [θ]ext / CD peak from phosphate buffer to borate buffer (borax)” value in data set [1] is “[θ]ext decreased”. Also, the Tm was under 0 °C in the data set with d(A)12 (binding target d(A)12, 20 mM borax); under 0 °C with d(A)12 (binding target d(A)12, 20 mM borax, listed as (U)8DNA(T)4); 42.5 °C in the data set with d(A)12 (binding target d(A)12, no additive, phosphate buffer pH 7.2). Besides, the “Tm gain of the complex over the DNA-DNA complex” value in the data set with d(A)12 (no additive) is 19.3 °C.

As to “NH2-isoGln(5′I)-isoGln(5′I)-isoGln(5′I)-isoGln(5′I)-isoGln(5′I)-isoGln(5′I)-isoGln(5′I)-isoGln(5′I)-Lys-OH [NH2-IIIIIIII-Lys-OH]”, the Tm in the data set with d(C)8 (binding target d(C)8, 20 mM borax) is under −5 °C; in the data set with d(C)8 (binding target d(C)8, no additive) it was 4.8 °C.

Regarding “NH2-isoGln(5′U)-isoGln(5′I)-isoGln(5′I)-isoGln(5′U)-isoGln(5′U)-isoGln(5′U)-isoGln(5′U)-isoGln(5′U)-Lys-OH [NH2UIIUUUUU-Lys-OH]”, in [1], the “change of [θ]ext / CD peak from phosphate buffer to borate buffer (borax)” value is on record as “marked decrease”. Further, the Tm was under 0 °C with 5′-d(ACCAAAAA)-3′ (20 mM borax); 6.2 °C in the data set on 5′-d(ACCAAAAA)-3′ (no additive); under 0 °C with 5′-d(AAAAACCA)-3′ (20 mM borax); “lower than 0 °C” with 5′-d(AAAAACCA)-3′ (20 mM borax, listed as PRNA (octamer)); 7.8 °C in the data set on 5′-d(AAAAACCA)-3′ (no additive, 1/30 M phosphate buffer). In addition, the “lowering of Tm with 5′-d(ACCAAAAA)-3′ in lieu of 5′-d(AAAAACCA)-3′” value in the data set on 5′-d(ACCAAAAA)-3′ (no additive) came out at 1.6 °C.

On to “Poly(N^γ-(5′-deoxy-5′-uridyl)-L-glutamine) [PRNA1]”, for which, in [3] (borax 6 times the amount of PRNA1), the “amount of xylose giving perfect 1:1 complex formation” value was “about 20 times that of the PRNA1”. Also, the “absorbance at 260 nm after addition of D(+)-xylose” value in data set [3] (borax 6 times the amount of PRNA1, decrease from 1.03) is given as 0.88. Moreover, in [3] (borax-containing phosphate buffer with poly(A)), the “effect of D(+)-glucose in lieu of D(+)-xylose” value is recorded as “the complex is formed”. Further, the “absorbance at 260 nm after addition of poly(A)” value in data set [3] (borax-free phosphate buffer pH 7.2, decrease from 1) came out at 0.88. Besides, the “amount of borax restoring the original absorbance (complete dissociation of complex)” value in data set [3] (phosphate buffer with PRNA1 and poly(A)) was “about 3 times the amount of the PRNA1”.
